Measurements reported in US8338465B2, “Cyclic carboxylic acid rhodanine derivatives for the treatment and prevention of tuberculosis” (priority 2006, dated 2012).

The molecules below were run against T1, dihydrolipoamide acyltransferase (DlaT) (Mycobacterium tuberculosis, UniProt P9WIS7) (assay: DlaT inhibition (Dlat IC50); DTNB peroxidase assay with Lpd, DlaT and AhpD). Details: Dlat IC50 category.
T1 sequence (P9WIS7 1-553): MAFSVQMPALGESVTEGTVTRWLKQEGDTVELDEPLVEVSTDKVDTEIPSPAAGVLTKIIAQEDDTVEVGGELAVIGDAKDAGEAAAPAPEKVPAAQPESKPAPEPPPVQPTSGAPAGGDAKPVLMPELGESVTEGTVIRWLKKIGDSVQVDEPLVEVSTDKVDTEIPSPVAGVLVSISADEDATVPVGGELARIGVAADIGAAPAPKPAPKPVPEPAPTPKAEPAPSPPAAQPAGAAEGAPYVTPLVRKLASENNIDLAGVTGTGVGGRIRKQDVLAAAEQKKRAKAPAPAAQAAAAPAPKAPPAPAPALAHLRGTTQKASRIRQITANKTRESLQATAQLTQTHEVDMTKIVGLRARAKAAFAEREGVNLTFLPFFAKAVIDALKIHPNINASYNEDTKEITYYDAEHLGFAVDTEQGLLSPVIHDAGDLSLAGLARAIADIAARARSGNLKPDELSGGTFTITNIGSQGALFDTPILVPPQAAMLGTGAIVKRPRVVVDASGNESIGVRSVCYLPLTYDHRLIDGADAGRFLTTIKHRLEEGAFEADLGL
Assay type: biochemical
In the case of Cc1cc(C)c(-c2ccc(C=C3SC(=S)N(Nc4ccccc4C(=O)O)C3=O)o2)c(C)c1 [Compound D28, 2-{4-Oxo-2-thioxo-5-[5-(2,4,6-trimethyl-phenyl)-furan-2-ylmethylene]-thiazolidin-3-ylamino}-benzoic acid], the IC50 is reported as under 10 µM. For Cc1cc(N(C)C)ccc1-c1ccc(C=C2SC(=S)N(Nc3ccccc3C(=O)O)C2=O)o1 [Compound D29, 2-{5-[5-(4-Dimethylamino-2-methyl-phenyl)-furan-2-ylmethylene]-4-oxo-2-thioxo-thiazolidin-3-ylamino}-benzoic acid], the IC50 was 11 to 40 µM. For CSc1ccccc1-c1ccc(C=C2SC(=S)N(Nc3ccccc3C(=O)O)C2=O)o1 [Compound D30, 2-{5-[1-[5-(2-methylsulfanyl-phenyl)-furan-2-yl]-methylidene]-4-oxo-2-thioxo-thiazolidin-3-ylamino}-benzoic acid], the IC50 was under 10 µM. CN(C)c1ccc(-c2ccc(C=C3SC(=S)N(Nc4ccccc4C(=O)O)C3=O)o2)cc1 [Compound D31, 2-{5-[5-(4-Dimethylamino-phenyl)-furan-2-ylmethylene]-4-oxo-2-thioxo-thiazolidin-3-ylamino}-benzoic acid] showed an IC50 of 11 to 40 µM. O=C(O)c1ccccc1NN1C(=O)C(=Cc2ccc(-c3ccccc3Oc3ccccc3)o2)SC1=S [Compound D33, 2-{4-oxo-5-[1-[5-(2-phenoxy-phenyl)-furan-2-yl]-methylidene]-2-thioxo-thiazolidin-3-ylamino}-benzoic acid] gave an IC50 of under 10 µM. Molecule Cc1ccccc1-c1ccc(C=C2SC(=S)N(Nc3ccccc3C(=O)O)C2=O)s1 [Compound D34, 2-{4-oxo-2-thioxo-5-[1-(5-o-tolyl-thiophen-2-yl)-methylidene]-thiazolidin-3-ylamino}-benzoic acid] has an IC50 of under 10 µM. O=C(O)c1ccccc1NN1C(=O)C(=Cc2ccc(-c3ccccc3Cl)s2)SC1=S [Compound D35, 2-{4-oxo-2-thioxo-5-[1-(5-2-chloro-thiophen-2-yl)-methylidene]-thiazolidin-3-ylamino}-benzoic acid] showed an IC50 of under 10 µM. O=C(O)c1ccccc1NN1C(=O)C(=Cc2ccc(-c3ccccc3F)s2)SC1=S [Compound D36, 2-{4-oxo-2-thioxo-5-[1-(5-2-fluoro-thiophen-2-yl)-methylidene]-thiazolidin-3-ylamino}-benzoic acid] showed an IC50 of under 10 µM. O=C(O)c1ccc(NN2C(=O)C(=Cc3ccc(-c4cccc(C(F)(F)F)c4)o3)SC2=S)cc1 [Compound D37, 4-{4-oxo-2-thioxo-5-[5-(3-trifluoromethyl-phenyl)-furan-2-ylmethylene]-thiazolidin-3-ylamino}-benzoic acid] gave an IC50 of under 10 µM. CCc1ccc(-c2ccc(C=C3SC(=S)N(Nc4ccccc4C(=O)O)C3=O)o2)cc1 [Compound D38, 2-{5-[1-[5-(4-ethyl-phenyl)-furan-2-yl]-methylidene]-4-oxo-2-thioxo-thiazolidin-3-ylamino}-benzoic acid] was tested, and the IC50 was under 10 µM. O=C(O)c1ccccc1NN1C(=O)C(=Cc2ccc(-c3ccc(C(F)(F)F)cc3)o2)SC1=S [Compound D39, 2-{4-oxo-2-thioxo-5-[1-[5-(4-trifluoromethyl-phenyl)-furan-2-yl]-methylidene]-thiazolidin-3-ylamino}-benzoic acid] showed an IC50 of under 10 µM. In the case of O=C(O)c1ccccc1NN1C(=O)C(=Cc2ccc(-c3cccc(-c4ccccc4)c3)o2)SC1=S [Compound D40, 2-{5-[1-(5-biphenyl-3-yl-furan-2-yl)-methylidene]-4-oxo-2-thioxo-thiazolidin-3-ylamino}-benzoic acid], the IC50 is reported as under 10 µM. CC(=O)Nc1ccc(-c2ccc(C=C3SC(=S)N(Nc4ccccc4C(=O)O)C3=O)o2)cc1 [Compound D41, 2-{5-[5-(4-acetylamino-phenyl)-furan-2-ylmethylene]-4-oxo-2-thioxo-thiazolidin-3-ylamino}-benzoic acid] showed an IC50 of under 10 µM. CC(=O)c1ccc(-c2ccc(C=C3SC(=S)N(Nc4ccccc4C(=O)O)C3=O)o2)cc1 [Compound D42, 2-{5-[1-[5-(4-acetyl-phenyl)-furan-2-yl]-methylidene]-4-oxo-2-thioxo-thiazolidin-3-ylamino}-benzoic acid] was tested, and the IC50 was under 10 µM. O=C(O)c1ccccc1NN1C(=O)C(=Cc2ccc(-c3ccccc3F)o2)SC1=S [Compound D43, 2-{5-[1-[5-(2-fluoro-phenyl)-furan-2-yl]-methylidene]-4-oxo-2-thioxo-thiazolidin-3-ylamino}-benzoic acid] showed an IC50 of under 10 µM. O=C(O)c1ccccc1NN1C(=O)C(=Cc2ccc(-c3cccc(CO)c3)o2)SC1=S [Compound D44, 2-{5-[1-[5-(3-hydroxymethyl-phenyl)-furan-2-yl]-methylidene]-4-oxo-2-thioxo-thiazolidin-3-ylamino}-benzoic acid] gave an IC50 of under 10 µM. O=C(O)c1ccccc1NN1C(=O)C(=Cc2ccc(-c3ccc(F)cc3)o2)SC1=S [Compound D45, 2-{5-[1-[5-(4-fluoro-phenyl)-furan-2-yl]-methylidene]-4-oxo-2-thioxo-thiazolidin-3-ylamino}-benzoic acid] was tested, and the IC50 was under 10 µM. In the case of O=C(O)c1ccccc1NN1C(=O)C(=Cc2ccc(-c3ccc(OCc4ccccc4)cc3)o2)SC1=S [Compound D48, 2-{5-[1-[5-(4-benzyloxy-phenyl)-furan-2-yl]-methylidene]-4-oxo-2-thioxo-thiazolidin-3-ylamino}-benzoic acid], the IC50 is reported as 11 to 40 µM. In the case of CCCCOc1ccc(-c2ccc(C=C3SC(=S)N(Nc4ccccc4C(=O)O)C3=O)o2)cc1 [Compound D49, 2-{5-[1-[5-(4-butoxy-phenyl)-furan-2-yl]-methylidene]-4-oxo-2-thioxo-thiazolidin-3-ylamino}-benzoic acid], the IC50 is reported as under 10 µM. Molecule CS(=O)(=O)c1ccc(-c2ccc(C=C3SC(=S)N(Nc4ccccc4C(=O)O)C3=O)o2)cc1 [Compound D50, 2-{5-[5-(4-methanesulfonyl-phenyl)-furan-2-ylmethylene]-4-oxo-2-thioxo-thiazolidin-3-ylamino}-benzoic acid] has an IC50 of under 10 µM. For Cc1ccccc1-c1ccc(C=C2SC(=S)N(Nc3ccccc3C(=O)O)C2=O)o1 [Compound D51, 2-{4-oxo-2-thioxo-5-[1-(5-o-tolyl-furan-2-yl)-methylidene]-thiazolidin-3-ylamino}-benzoic acid], the IC50 was under 10 µM. With CSc1cccc(-c2ccc(C=C3SC(=S)N(Nc4ccccc4C(=O)O)C3=O)o2)c1 [Compound D52, 2-{5-[1-[5-(3-methylsulfanyl-phenyl)-furan-2-yl]-methylidene]-4-oxo-2-thioxo-thiazolidin-3-ylamino}-benzoic acid] the IC50 was under 10 µM. CSc1ccc(-c2ccc(C=C3SC(=S)N(Nc4ccccc4C(=O)O)C3=O)o2)cc1 [Compound D53, 2-{5-[1-[5-(4-methylsulfanyl-phenyl)-furan-2-yl]-methylidene]-4-oxo-2-thioxo-thiazolidin-3-ylamino}-benzoic acid] was tested, and the IC50 was 11 to 40 µM. CC(C)Oc1ccc(-c2ccc(C=C3SC(=S)N(Nc4ccccc4C(=O)O)C3=O)o2)cc1 [Compound D54, 2-{5-[5-(4-isopropoxy-phenyl)-furan-2-ylmethylene]-4-oxo-2-thioxo-thiazolidin-3-ylamino}-benzoic acid] was tested, and the IC50 was under 10 µM. For Cc1ccc(-c2cccc(C=C3SC(=S)N(Nc4ccccc4C(=O)O)C3=O)c2)cc1 [Compound D55, 2-{5-[1-(4′-methyl-biphenyl-3-yl)-methylidene]-4-oxo-2-thioxo-thiazolidin-3-ylamino}-benzoic acid], the IC50 was under 10 µM. With Cc1ccc(-c2ccc(C=C3SC(=S)N(Nc4ccccc4C(=O)O)C3=O)cc2)cc1 [Compound D56, 2-{5-[1-(4′-methyl-biphenyl-4-yl)-methylidene]-4-oxo-2-thioxo-thiazolidin-3-ylamino}-benzoic acid] the IC50 was 11 to 40 µM. O=C(O)c1ccccc1NN1C(=O)C(=Cc2ccc(-c3ccccc3-c3ccccc3)o2)SC1=S [Compound D57, 2-{5-[1-(5-biphenyl-2-yl-furan-2-yl)-methylidene]-4-oxo-2-thioxo-thiazolidin-3-ylamino}-benzoic acid] showed an IC50 of under 10 µM. For CCc1ccccc1-c1ccc(C=C2SC(=S)N(Nc3ccccc3C(=O)O)C2=O)o1 [Compound D58, 2-{5-[1-[5-(2-ethyl-phenyl)-furan-2-yl]-methylidene]-4-oxo-2-thioxo-thiazolidin-3-ylamino}-benzoic acid], the IC50 was under 10 µM. Molecule CCCCc1ccc(-c2ccc(C=C3SC(=S)N(Nc4ccccc4C(=O)O)C3=O)o2)cc1 [Compound D59, 2-{5-[1-[5-(4-butyl-phenyl)-furan-2-yl]-methylidene]-4-oxo-2-thioxo-thiazolidin-3-ylamino}-benzoic acid] has an IC50 of under 10 µM. In the case of CCCc1ccc(-c2ccc(C=C3SC(=S)N(Nc4ccccc4C(=O)O)C3=O)o2)cc1 [Compound D60, 2-{5-[1-[5-(4-propyl-phenyl)-furan-2-yl]-methylidene]-4-oxo-2-thioxo-thiazolidin-3-ylamino}-benzoic acid], the IC50 is reported as under 10 µM.

Same assay, conditions: Dlat IC50 category, Table 7, Compounds G1 to G4
In the case of O=C(O)c1cccc(CCN2C(=O)C(=Cc3ccc(-c4ccccc4Cl)o3)SC2=S)c1 [Compound G1], the IC50 is reported as under 10 µM. O=C(O)c1cccc(CCN2C(=O)C(=Cc3ccc(-c4cccc(C(F)(F)F)c4)o3)SC2=S)c1 [Compound G2] showed an IC50 of under 10 µM. For O=C(O)c1cccc(CCN2C(=O)C(=Cc3ccc(-c4cc(C(F)(F)F)ccc4Cl)o3)SC2=S)c1 [Compound G3], the IC50 was under 10 µM. O=C(O)c1cccc(CCN2C(=O)C(=Cc3ccc(-c4cc(Cl)ccc4Cl)o3)SC2=S)c1 [Compound G4] gave an IC50 of under 10 µM.

Same assay, conditions: read-out: Dlat IC50 category
In the case of O=C(O)c1cccc(CCN2C(=O)C(=Cc3ccc(-c4cc5ccccc5s4)o3)SC2=S)c1 [Compound H1], the IC50 is reported as 11 to 40 µM.
